{"source": "patent US5583155A", "about": "“6-amino-1,2-benzopyrones useful for treatment of viral diseases” (Octamer, Inc., priority 1994, dated 1996)", "key": {"ADPRT": {"system": "ADPRT", "assay": "Binding to ADPRT", "settings": "enzymes other than ADPRT"}, "[1]": {"system": "HIV in human lymphoblasts", "assay": "HIV production in human lymphoblasts (p24 antigen)", "assay_type": "cell-based, HIV (isolates from blood of infected patients)", "protocol": "In FIG. 10, human lymphoblast exposed to 6-ABP for 18 hours. The drug concentrations studied were between 0.01 to 10 mM. HIV production was studied in two time intervals, 6 and 12 days after the drug removal.\n(§1) In FIGS. 11A through 11E, normal lymphoblasts stimulated with PHA are infected with HIV and at the same time are submitted to various concentrations from 0-10 mM 6-ABP. After the short exposure of 18 hours, both HIV and 6-ABP are removed, FIGS. 11A, 11C, 11E and the 6-ABP in the same concentrations is readded up to 4 days to cultures shown in FIGS. 11B and 11D. At 4 days, proliferation index measured by ^3 H-thymidine incorporation is determined in FIGS. 11A and 11B. […] In FIGS. 11C and […], the viral synthesis or inhibition is measured by p 24 assay.\nThe HIV isolates used in these experiments were isolated from the blood of infected patients. After isolation, HIV infection was established in CEM cells, and these infected cells were used to produce a stock of HIV virus that was titered to measure the concentration of tissue culture infective doses (TCID).\n6 ABP was dissolved in saline in amount which was further diluted as required, and added to the culture medium containing cells at the indicated concentrations.\nHuman peripheral blood mononuclear cells from a noninfected, normal individual were stimulated for 2 to 3 days with phytohemagglutinin in tissue culture, washed, aliquoted and cultured overnight with 200 TCID or 50 TCID of HIV and were untreated or treated with 0.01, 0.1, 1.0 or 10.0 mM 6-ABP. An additional control was incubated with 10 mM 6-ABP without presence of HIV. After the overnight incubation, […]. The cells were placed in culture in medium containing IL-2, but in the absence of additional 6-ABP, and monitored at 6 days and 12 days for the production of HIV-p24 core antigen, or for measurements of particulate reverse transcriptase. A decrease in the amount of either of these indicators of HIV indicated an inhibition by 6-ABP in the ability of HIV to replicate in normal human lymphoblasts.\nHIV p24 antigen was measured by ELISA, with a cutoff of 5 pgm/ml. Particulate reverse transcriptase was measured by centrifuging down free virus from tissue culture fluids, lysing HIV in a buffer containing detergent, magnesium, H3-labelled dTTP and poly rA.oligo dT primer, incubating for 1 hour, and measuring precipitable radioactivity, expressed as cpm per volume of HIV-containing medium."}, "HSV-2 strain G": {"system": "HSV-2 strain G", "assay": "microbe, parasite or virus in culture", "assay_type": "cell-based, Herpes simplex virus type 2"}, "human lymphoblasts": {"system": "human lymphoblasts", "assay": "Lymphoblast DNA synthesis / viability (3H-thymidine incorporation)", "assay_type": "cell-based", "protocol": "as §1\nThe viability of lymphoblasts was measured by incubating the cells exposed to IL-2, HIV and to 6-ABP with H3-thymidine for 6 hours on the sixth day of culture and determining the amount of cpm incorporated per 100,000 cells placed in culture.\nIn order to ascertain that relatively short 18 hours exposure of human lymphoblasts selectively blocks HIV replication and has minimal effects on DNA synthesis of lymphoblasts, the proliferation, p24 and reverse transcriptase experiments were also performed, as shown in FIG. 11.\nIn panel A (top) DNA synthesis of lymphoblasts is assayed as a function of 6-ABP concentration. In panel A' (lower curve) the decay of HIV replication is simultaneously determined, and in A \"panel\" reverse transcriptase was assayed. All these are accepted assays for HIV replication."}, "Enterovirus (ECHO-11)": {"system": "Enterovirus (ECHO-11)", "assay": "microbe, parasite or virus in culture", "assay_type": "cell-based"}, "HIV in AA-2 cells": {"system": "HIV in AA-2 cells", "assay": "HIV replication in AA-2 cells (p 24 ELISA)", "assay_type": "cell-based", "settings": "3 mM", "protocol": "The effects of 3 mM 6-ABP on HIV replication in AA-2 cells using the same experimental set-up as for FIG. 7 was followed by the conventional analysis of p 24 formation by automated ELISA tests. The results are shown in FIG. 8, where as in FIG. 7, the influence of varying HIV concentrations infecting HIV dilution, from 1:100 to 1:1600 or p 24 input, as shown in graph, was monitored."}, "[2]": {"assay_type": "in vivo", "protocol": "This example illustrates the lack of toxicity after intraperitoneal administration of 6-ABP to mice.\nTwo toxicological tests administering 6-ABP to mice were performed under the following conditions.\nOne group of 5 mice received 6-ABP i.p. injection in amount of 1 g/kg.\nGroup of 50 white mice was injected daily with 250 mg/kg 6-ABP i.p. for 12 days."}, "HIV in whole blood": {"system": "HIV in whole blood", "assay": "HIV inhibition in whole blood of HIV infected patients", "assay_type": "cell-based", "settings": "FIG. 10 results repeated in whole blood"}, "HSV-1 strain F": {"system": "HSV-1 strain F", "assay": "microbe, parasite or virus in culture", "assay_type": "cell-based, Herpes simplex virus type 1"}, "[3]": {"assay": "Intracellular metabolism of 6-ABP"}, "RSV": {"system": "RSV", "assay": "microbe, parasite or virus in culture", "assay_type": "cell-based, Respiratory Syncytium virus (patient isolate)"}, "[4]": {"settings": "1 mM 6-ABP, 24 hours before infection"}, "[5]": {"settings": "1, 5 and 10 mM, zero time vs 4 hours after infection"}}, "note": "“Also recorded” adds a separate entry of the source. Like-named read-outs stand apart in the source and are kept apart here.", "data": [{"smiles": "Nc1ccc2oc(=O)ccc2c1", "note": "[6-ABP, 6-amino-1,2-benzopyrone]", "values": [{"measurement": "effect on other enzymes", "setting": "ADPRT", "result": "no other enzymes are activated or inhibited"}, {"measurement": "viral multiplication, p 24 assay", "setting": "[1]; 0-10 mM, 18 hours or 4 days exposure, FIGS. 11C and 11D", "result": "almost completely inhibited"}, {"measurement": "HIV production in human lymphoblasts", "setting": "[1]; 0.1 μM (so in the source), 18 hours exposure, 6 and 12 days", "result": "HIV production decreased dramatically"}, {"measurement": "decrease of HIV (p24 tests)", "setting": "[1]; 0.1 mM, 18 hours exposure, 6 or 12 days past infection", "result": "dramatic decrease of HIV"}, {"measurement": "selectivity against HIV replication vs cellular DNA synthesis", "setting": "[1]; 18 hr exposure, FIG. 11", "result": "great selectivity of 6-ABP against HIV replication"}, {"measurement": "Virus Titer +6-ABP (HSV-2)", "setting": "HSV-2 strain G; [4]", "result": "2 × 10^5 PFU per ml"}, {"measurement": "effect of time of drug addition, HSV-2 (G)", "setting": "HSV-2 strain G; [5]", "result": "essentially no differences found between the two modes of drug exposure"}, {"measurement": "inhibition of HSV-2 strain G growth", "setting": "HSV-2 strain G; 1-10 mM, 24 hours pretreatment, HEp-2 cells", "result": "90-97%"}, {"measurement": "inhibition at 1000 µM", "setting": "HSV-2 strain G; Human alphaherpesvirus 2, 0 h, 1 mM at 0 hours (time of infection), read-out: inhibition of HSV-2 growth", "result": 85, "unit": "%"}, {"measurement": "inhibition at 1000 µM", "setting": "HSV-2 strain G; Human alphaherpesvirus 2, 1 mM 6-ABP, 24 hours before infection, read-out: % Inhibition (HSV-2), Table 1", "result": 87.5, "unit": "%"}, {"measurement": "inhibition at 1000 µM", "setting": "HSV-2 strain G; Human alphaherpesvirus 2, 1 mM, 24 hours pretreatment, read-out: inhibition of HSV-2 growth", "result": 90, "unit": "%"}, {"measurement": "inhibition at 1000 µM", "setting": "HSV-2 strain G; Human alphaherpesvirus 2, 4 h, 1 mM at 4 hours post infection, read-out: inhibition of HSV-2 growth", "result": 72, "unit": "%"}, {"measurement": "inhibition at 200 µM", "setting": "HSV-2 strain G; Human alphaherpesvirus 2, HEp-2, 0.2 mM, 24 hours pretreatment, HEp-2 cells, read-out: inhibition of HSV-2 strain G growth", "result": "~45", "unit": "%"}, {"measurement": "viability of lymphoblasts", "setting": "human lymphoblasts; 4 consecutive days exposure", "result": "viability of lymphoblasts was not affected by the drug"}, {"measurement": "DNA synthesis of lymphoblasts", "setting": "human lymphoblasts; 18 hours exposure, FIG. 11A", "result": "does not influence genomic DNA synthesis; also recorded: did not effect the DNA synthesis; also recorded: cellular DNA synthesis virtually unaffected"}, {"measurement": "DNA synthesis of lymphoblasts", "setting": "human lymphoblasts; 4 days exposure, FIG. 11B", "result": "temporarily also inhibited; also recorded: inhibitory effect on lymphoblast DNA synthesis"}, {"measurement": "Virus Titer +6-ABP (Enterovirus)", "setting": "Enterovirus (ECHO-11); 1 mM 6-ABP, 24 hours before infection, ECHO-11", "result": "1.6 × 10^6 TCID50"}, {"measurement": "effect on Enterovirus growth", "setting": "Enterovirus (ECHO-11); 6-ABP treatment", "result": "no effect"}, {"measurement": "inhibition at 1000 µM", "setting": "Enterovirus (ECHO-11); Enterovirus, 1 mM 6-ABP, 24 hours before infection, ECHO-11", "result": 0, "unit": "%"}, {"measurement": "HIV replication", "setting": "HIV in AA-2 cells; beyond a virus dilution of 1:1400", "result": "profoundly inhibited HIV replication"}, {"measurement": "p 24 generation", "setting": "HIV in AA-2 cells; day 4, 1:1400 virus dilution", "result": "completely suppressed p 24 generation"}, {"measurement": "behavior", "setting": "[2]; 250 mg/kg i.p. daily, 12 days", "result": "quite normal"}, {"measurement": "toxic effects", "setting": "[2]; 250 mg/kg i.p. daily, 12 days", "result": "no visible toxic effects"}, {"measurement": "weight gain", "setting": "[2]; 250 mg/kg i.p. daily, 12 days", "result": "no disruption in their normal weight gain"}, {"measurement": "seizures and weakness in one mouse", "setting": "[2]; 1 g/kg i.p., 4 hours after injection, recovered in 18 hours", "result": "seizures and hind leg weakness but then completely recovered in 18 hours"}, {"measurement": "toxic symptoms", "setting": "[2]; 1 g/kg i.p., single, 24 hours observation", "result": "no toxic symptoms in 4 mice"}, {"measurement": "HIV inhibition in whole blood", "setting": "HIV in whole blood", "result": "essentially reproduced in whole blood of HIV infected patients"}, {"measurement": "effect of time of drug addition, HSV-1 (F)", "setting": "HSV-1 strain F; [5]", "result": "essentially no differences found between the two modes of drug exposure"}, {"measurement": "dependence of inhibitory effect on cell type", "setting": "HSV-1 strain F; HSV growth in HEp-2, Vero and MRC-5 cells", "result": "not affected by cell type"}, {"measurement": "inhibition at 1000 µM", "setting": "HSV-1 strain F; Human alphaherpesvirus 1, 1 mM at 0 and 4 hours post infection, respectively, read-out: inhibition of HSV-1 growth", "result": "60 to 65", "unit": "%"}, {"measurement": "inhibition at 1000 µM", "setting": "HSV-1 strain F; Human alphaherpesvirus 1, 1 mM, 24 hours before infection, read-out: inhibition of HSV-1 growth", "result": 50, "unit": "%"}, {"measurement": "inhibition at 10000 µM", "setting": "HSV-1 strain F; Human alphaherpesvirus 1, 10 mM, 0 and 4 hours post infection, read-out: inhibition of HSV-1 growth", "result": "~80", "unit": "%"}, {"measurement": "inhibition at 2000 µM", "setting": "HSV-1 strain F; Human alphaherpesvirus 1, HEp-2, 24 h, 2 mM, 24 hrs preexposure, HEp-2 cells, FIG. 1A, read-out: inhibition of HSV-1 strain F growth", "result": "> 50", "unit": "%"}, {"measurement": "IC50", "setting": "HSV-1 strain F; Human alphaherpesvirus 1, 24 hours pretreatment, HEp-2 cells, read-out: concentration for 50% inhibition of growth, HSV-1 strain F", "result": 2000, "unit": "µM"}, {"measurement": "reduction-oxidation cycle", "setting": "[3]; liver vs target cells", "result": "high in liver but much lower in target cells"}, {"measurement": "intracellular oxidation", "setting": "[3]; to 6-nitroso-1,2-benzopyrone", "result": "rapid oxidation at the 6-amino position"}, {"measurement": "Virus Titer +6-ABP (RSV)", "setting": "RSV; [4]", "result": "1 × 10^5 TCID50"}, {"measurement": "effect on RSV growth", "setting": "RSV; 6-ABP treatment", "result": "no effect"}, {"measurement": "inhibition at 1000 µM", "setting": "RSV; human respiratory syncytial virus, 1 mM 6-ABP, 24 hours before infection", "result": 0, "unit": "%"}]}]}
